Measurements published in patent publication US4698344A, “1-Heteroaryl-4-aryl-pyrazolin-5-ones for use as medicaments” (priority 1984, dated 1987).

How the values were obtained:
cyclooxygenase [1] = conditions: background statement; cited from earlier work
5-lipoxygenase = biological target: T1, 5-lipoxygenase (Homo sapiens, UniProt P09917); assay: Lipoxygenase activity (LTB4 synthesis) in human PMN leukocytes stimulated with A 23187; type: cell-based; conditions: for inhibition at 10 µg/mL: at 10 μg/ml, read-out: Inhibition of LTB4 synthesis in human PMN's; for Effective threshold concentration, inhibition of LTB4 synthesis: human PMN's
T1 construct: endogenous in cells; host or cells: human polymorphonuclear leukocytes from heparinized whole blood
T1 sequence (P09917 1-674): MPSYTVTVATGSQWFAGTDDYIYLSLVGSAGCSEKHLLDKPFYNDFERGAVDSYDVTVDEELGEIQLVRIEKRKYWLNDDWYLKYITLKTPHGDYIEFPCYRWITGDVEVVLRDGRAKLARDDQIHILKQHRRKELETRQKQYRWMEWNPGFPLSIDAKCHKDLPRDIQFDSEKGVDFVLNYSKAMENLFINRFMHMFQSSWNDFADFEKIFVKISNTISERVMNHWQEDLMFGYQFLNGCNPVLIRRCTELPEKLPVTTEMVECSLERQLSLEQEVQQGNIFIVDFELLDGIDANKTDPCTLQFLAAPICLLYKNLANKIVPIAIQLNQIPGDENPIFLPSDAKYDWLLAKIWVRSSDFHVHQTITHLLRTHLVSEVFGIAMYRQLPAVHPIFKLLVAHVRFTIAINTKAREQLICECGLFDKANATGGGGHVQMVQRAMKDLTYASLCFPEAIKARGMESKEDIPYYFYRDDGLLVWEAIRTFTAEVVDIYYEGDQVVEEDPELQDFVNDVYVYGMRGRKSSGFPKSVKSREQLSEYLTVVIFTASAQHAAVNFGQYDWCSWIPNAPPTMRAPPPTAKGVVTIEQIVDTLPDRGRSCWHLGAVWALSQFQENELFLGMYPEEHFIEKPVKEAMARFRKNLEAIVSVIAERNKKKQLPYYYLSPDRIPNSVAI
Experimental: The polymorphonuclear leukocytes of humans metabolize arachidonic acid to give 5-hydroxy-5,8,11,14-eicosatetraenoic acid (5-HETE) and leukotriene B4 (5S, 12R-dihydroxy-6-cis, 8,10-trans-14ciseicosatetraenoic acid). Inhibition of the release of 5-HETE and leukotriene B4 from leukocytes is a measure of the lipoxygenase-inhibiting effect of the compounds according to the invention.
After 15 minutes, the lipoxygenase products were extracted from the acidified incubation medium and separated by means of HPLC.

lipoxygenase = biological target: T2, lipoxygenase (Rattus norvegicus, UniProt P12527); assay: Lipoxygenase activity in homogenates of RBL-1 cells; type: biochemical; conditions: concentration 0.5-1 μg/ml; negative = inhibition
T2 construct: homogenates of RBL-1 cells; endogenous in cells; host or cells: RBL-1 (rat basophilic leukaemia) cells, homogenate
T2 sequence (P12527 1-673): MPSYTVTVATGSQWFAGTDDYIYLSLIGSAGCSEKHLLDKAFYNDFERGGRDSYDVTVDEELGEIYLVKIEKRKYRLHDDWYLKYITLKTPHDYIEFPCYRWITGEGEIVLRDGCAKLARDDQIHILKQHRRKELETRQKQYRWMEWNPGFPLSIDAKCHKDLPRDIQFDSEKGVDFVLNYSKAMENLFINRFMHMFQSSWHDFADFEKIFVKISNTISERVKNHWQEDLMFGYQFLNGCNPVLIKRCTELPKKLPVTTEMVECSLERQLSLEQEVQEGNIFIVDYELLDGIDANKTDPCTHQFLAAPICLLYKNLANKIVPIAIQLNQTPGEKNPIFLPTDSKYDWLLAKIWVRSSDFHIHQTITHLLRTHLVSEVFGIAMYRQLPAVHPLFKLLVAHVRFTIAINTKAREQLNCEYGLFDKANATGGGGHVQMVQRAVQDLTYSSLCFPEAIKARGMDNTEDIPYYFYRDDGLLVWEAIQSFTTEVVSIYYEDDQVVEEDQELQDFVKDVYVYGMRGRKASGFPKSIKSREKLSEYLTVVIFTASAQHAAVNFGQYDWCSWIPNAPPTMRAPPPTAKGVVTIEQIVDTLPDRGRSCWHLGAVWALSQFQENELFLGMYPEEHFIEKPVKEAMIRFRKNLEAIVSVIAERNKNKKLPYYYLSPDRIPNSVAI
Text: (§1) Basophilic leukaemia cells from rats (RBL-1) synthesize both lipoxygenase and cyclooxygenase products from ^14 C-arachidonic acid with which they are supplied. […] The products formed were separated by thin layer chromatography and quantified in a scanner.

12-lipoxygenase = biological target: T3, 12-lipoxygenase (Homo sapiens, UniProt P18054); assay: Arachidonic acid metabolism in human platelets: 12-lipoxygenase activity; type: cell-based
T3 construct: washed human platelets; endogenous in cells; host or cells: washed human platelets
T3 sequence (P18054 1-663): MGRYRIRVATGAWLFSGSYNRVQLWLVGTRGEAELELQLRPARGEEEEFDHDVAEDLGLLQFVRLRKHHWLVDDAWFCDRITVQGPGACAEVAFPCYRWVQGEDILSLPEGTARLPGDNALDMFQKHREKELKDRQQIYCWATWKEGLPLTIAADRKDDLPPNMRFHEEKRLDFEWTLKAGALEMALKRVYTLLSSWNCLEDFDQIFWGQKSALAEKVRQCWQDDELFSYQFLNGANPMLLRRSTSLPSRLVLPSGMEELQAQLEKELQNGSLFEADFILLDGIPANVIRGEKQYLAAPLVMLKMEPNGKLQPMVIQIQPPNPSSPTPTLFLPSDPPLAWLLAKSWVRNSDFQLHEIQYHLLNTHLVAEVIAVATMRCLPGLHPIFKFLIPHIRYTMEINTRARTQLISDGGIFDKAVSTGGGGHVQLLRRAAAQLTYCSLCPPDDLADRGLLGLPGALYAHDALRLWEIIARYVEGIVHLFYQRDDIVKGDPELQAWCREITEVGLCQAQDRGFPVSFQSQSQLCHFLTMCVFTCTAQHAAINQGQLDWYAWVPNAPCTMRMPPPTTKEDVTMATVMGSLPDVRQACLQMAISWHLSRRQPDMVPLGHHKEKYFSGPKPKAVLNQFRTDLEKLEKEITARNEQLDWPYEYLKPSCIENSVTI
Experimental: (§2) The metabolism of radioactively labelled arachidonic acid on washed human platelets is utilised in this test method. In this in vitro test, the radioactively labelled metabolites are extracted from the reaction mixture and separated by thin layer chromatography. The autoradiogram is evaluated with a thin layer scanner. Under these test conditions, the labelled metabolites are separated from the unreacted arachidonic acid and can then be evaluated quantitatively.

cyclooxygenase [2] = biological target: T4, cyclooxygenase (Homo sapiens, UniProt P23219); assay: Arachidonic acid metabolism in human platelets: cyclooxygenase activity; type: cell-based
T4 construct: washed human platelets; endogenous in cells; host or cells: washed human platelets
Experimental: as §2

cyclooxygenase [3] = biological target: T5, cyclooxygenase (Rattus norvegicus, UniProt Q63921); assay: Cyclooxygenase activity in homogenates of RBL-1 cells; type: biochemical; conditions: concentration 0.5-1 μg/ml; negative = inhibition
T5 construct: homogenates of RBL-1 cells; endogenous in cells; host or cells: RBL-1 (rat basophilic leukaemia) cells, homogenate
T5 sequence (Q63921 27-602): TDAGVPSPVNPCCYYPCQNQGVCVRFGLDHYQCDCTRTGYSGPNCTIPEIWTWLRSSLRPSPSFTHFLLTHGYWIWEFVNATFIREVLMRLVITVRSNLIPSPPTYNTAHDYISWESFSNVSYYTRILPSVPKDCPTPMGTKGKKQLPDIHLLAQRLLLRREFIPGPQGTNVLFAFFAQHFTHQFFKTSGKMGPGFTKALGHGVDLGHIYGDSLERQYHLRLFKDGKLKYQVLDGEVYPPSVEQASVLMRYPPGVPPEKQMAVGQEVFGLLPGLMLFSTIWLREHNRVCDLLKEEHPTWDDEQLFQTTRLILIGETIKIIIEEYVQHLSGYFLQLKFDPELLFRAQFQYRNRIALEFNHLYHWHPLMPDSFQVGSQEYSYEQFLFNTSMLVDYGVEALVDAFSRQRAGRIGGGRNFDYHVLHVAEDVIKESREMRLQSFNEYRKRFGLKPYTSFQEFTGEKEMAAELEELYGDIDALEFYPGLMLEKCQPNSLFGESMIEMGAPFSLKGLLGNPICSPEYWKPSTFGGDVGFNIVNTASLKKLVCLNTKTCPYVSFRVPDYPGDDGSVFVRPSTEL
Text: as §1

[4] = tested on: carrageenan-induced oedema of the rat paw; assay: Carrageenan-induced oedema of the rat paw; type: in vivo; conditions: oral, 2.5 mg/kg, rats, 5 hours after oedema provocation
Experimental: The antiinflammatory action of the test substances following oral administration was determined with the aid of carrageenan-induced oedema of the rat paw.
The experiments were carried out with male rats, strain: Bor:WLSW (SPF-Cpb); weight 150 to 220 g. One hour before inducing the oedema (0.1 ml of carrageenan suspension/animal, subplantar injection), the substance to be tested was administered to the animals as a suspension in tragacanth with the aid of a stomach tube; as a control, a second group of animals was treated with tragacanth without the substance.
The paw volumes were measured by the method of F. Kemper and G. Ameln Z. exp.

[5] = tested on: release of leukotrienes (SRS-A); assay: Passive peritoneal anaphylaxis (rats); type: in vivo, rat; conditions: 100 mg/kg perorally
Experimental: The effect of substances on the release of mediators, in particular the release of leukotrienes, is recorded with this in vivo method. […] Histamine is not released during this, so that the lipoxygenase-inhibiting action of test substances can be investigated selectively.

T4 sequence (P23219 24-599): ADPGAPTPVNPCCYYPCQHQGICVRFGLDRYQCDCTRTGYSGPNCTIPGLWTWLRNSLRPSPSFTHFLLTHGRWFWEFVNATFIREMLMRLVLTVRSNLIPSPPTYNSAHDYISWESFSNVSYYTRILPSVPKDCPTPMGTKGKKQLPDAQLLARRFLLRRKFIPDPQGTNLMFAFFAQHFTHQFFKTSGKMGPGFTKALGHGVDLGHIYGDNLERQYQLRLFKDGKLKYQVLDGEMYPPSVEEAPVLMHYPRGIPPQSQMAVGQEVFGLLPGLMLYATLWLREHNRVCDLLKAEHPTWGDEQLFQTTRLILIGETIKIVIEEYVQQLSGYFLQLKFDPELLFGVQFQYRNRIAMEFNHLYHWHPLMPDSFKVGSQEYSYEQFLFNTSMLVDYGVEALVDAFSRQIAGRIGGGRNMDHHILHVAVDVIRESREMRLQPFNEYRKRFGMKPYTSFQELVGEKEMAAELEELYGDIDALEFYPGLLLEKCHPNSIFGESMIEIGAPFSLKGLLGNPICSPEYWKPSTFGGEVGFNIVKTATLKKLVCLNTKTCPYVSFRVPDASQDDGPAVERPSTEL

CCCCCC#CCC#CCC#CCC#CCCCC(=O)O [5,8,11,14-eicosatetraynoic acid]
cyclooxygenase activity / potency of known lipoxygenase inhibitors (in words) (cyclooxygenase [1]): either simultaneously active as cyclooxygenase inhibitors or active only at very high concentrations

O=c1c(-c2ccccc2F)c[nH]n1-c1ccccn1 [Example 8]
inhibition at 10 µg/mL (5-lipoxygenase): 71%
Effective threshold concentration, inhibition of LTB4 synthesis (5-lipoxygenase): 1 to 10 µg/mL
Action on lipoxygenase (LO): Effect (lipoxygenase): -73%
Inhibition (threshold concentration), 12-lipoxygenase (12-lipoxygenase): 1 to 10 µg/mL
Inhibition (threshold concentration), cyclooxygenase (cyclooxygenase [2]): 1 to 10 µg/mL
Action on cyclooxygenase (CO): Effect (cyclooxygenase [3]): +3%

O=c1c(-c2ccc(Cl)c(Cl)c2)c[nH]n1-c1ccccn1 [Example 16]
inhibition at 10 µg/mL (5-lipoxygenase): 85%
Effective threshold concentration, inhibition of LTB4 synthesis (5-lipoxygenase): 1 to 10 µg/mL
Action on lipoxygenase (LO): Effect (lipoxygenase): -76%
Inhibition (threshold concentration), 12-lipoxygenase (12-lipoxygenase): 1 to 10 µg/mL
Inhibition (threshold concentration), cyclooxygenase (cyclooxygenase [2]): 1 to 10 µg/mL
Action on cyclooxygenase (CO): Effect (cyclooxygenase [3]): -19%

COc1ccc(-c2c[nH]n(-c3ccccn3)c2=O)cc1 [Example 18]
% inhibition of the carrageenan oedema [4]: 22%

Cc1ccccc1-c1c[nH]n(-c2ccccn2)c1=O [Example 24]
Action on lipoxygenase (LO): Effect (lipoxygenase): -34%
Action on cyclooxygenase (CO): Effect (cyclooxygenase [3]): -2%

Cc1cccc(-c2c[nH]n(-c3ccccn3)c2=O)c1 [Example 25]
% inhibition, passive peritoneal anaphylaxis [5]: 64%

O=c1c(-c2cccc(C(F)(F)F)c2)c[nH]n1-c1ccccn1 [Example 27]
% inhibition, passive peritoneal anaphylaxis [5]: 47%

O=c1c(-c2ccc(C(F)(F)F)cc2)c[nH]n1-c1ccccn1 [Example 28]
Action on lipoxygenase (LO): Effect (lipoxygenase): -58%
% inhibition of the carrageenan oedema [4]: 21%
Action on cyclooxygenase (CO): Effect (cyclooxygenase [3]): +5%

Cc1[nH]n(-c2ccccn2)c(=O)c1-c1ccccc1 [Example 49]
% inhibition of the carrageenan oedema [4]: 16%

COc1ccccc1-c1c[nH]n(-c2ccc(Cl)cn2)c1=O [Example 58]
Action on lipoxygenase (LO): Effect (lipoxygenase): -66%
Action on cyclooxygenase (CO): Effect (cyclooxygenase [3]): -17%

Cc1[nH]n(-c2ccc(Cl)cn2)c(=O)c1-c1ccccc1 [Example 63]
inhibition at 10 µg/mL (5-lipoxygenase): 100%
Effective threshold concentration, inhibition of LTB4 synthesis (5-lipoxygenase): 1 to 10 µg/mL
Inhibition (threshold concentration), 12-lipoxygenase (12-lipoxygenase): 1 to 10 µg/mL
Inhibition (threshold concentration), cyclooxygenase (cyclooxygenase [2]): 1 to 10 µg/mL

O=c1c(-c2ccccc2)c[nH]n1-c1ccc([N+](=O)[O-])cn1 [Example 69]
% inhibition of the carrageenan oedema [4]: 34%

O=c1c(-c2ccccc2)c[nH]n1-c1ncccn1 [Example 103, 1-pyrimid-2-yl-4-phenyl-pyrazolin-5-one]
Action on lipoxygenase (LO): Effect (lipoxygenase): -42%

O=c1c(-c2ccccc2F)c[nH]n1-c1ncccn1 [Example 104]
Action on lipoxygenase (LO): Effect (lipoxygenase): -46%
Action on cyclooxygenase (CO): Effect (cyclooxygenase [3]): +23%

COc1ccc(-c2c[nH]n(-c3ncccn3)c2=O)cc1 [Example 113]
Action on lipoxygenase (LO): Effect (lipoxygenase): -71%
Action on cyclooxygenase (CO): Effect (cyclooxygenase [3]): -11%

O=c1c(-c2ccccc2)c[nH]n1-c1ncc(Cl)cn1 [Example 130]
% inhibition of the carrageenan oedema [4]: 38%

O=c1c(-c2ccc(C(F)(F)F)cc2)c[nH]n1-c1ncc(Cl)cn1 [Example 135]
% inhibition of the carrageenan oedema [4]: 46%

CC(Cc1ccc(O)c(O)c1)C(C)Cc1ccc(O)c(O)c1 (centres unmarked) [nordihydroguaretic acid]
cyclooxygenase activity / potency of known lipoxygenase inhibitors (in words) (cyclooxygenase [1]): either simultaneously active as cyclooxygenase inhibitors or active only at very high concentrations

O=C1CCN(c2ccccc2)N1 [phenidone]
cyclooxygenase activity / potency of known lipoxygenase inhibitors (in words) (cyclooxygenase [1]): either simultaneously active as cyclooxygenase inhibitors or active only at very high concentrations
